From patent publication US20260294769A1, “ASCORBIC ACID DERIVATIVES AND COSMETIC THEREOF” (SEIWA KASEI COMPANY, LIMITED, priority 2023, published 2026) come the findings set out here.

A short description of data set [1]: Stability Test-2: residual rate in cream of pH 7 or 9 stored at 50° C. Type of data set: physicochemical. In outline: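 Each test sample was formulated into a cream adjusted to pH 7 or 9: components (a) and (b) were heated and mixed separately, cooled, and then component (c) was added. The cream was held at 50° C., and the percentage of the sample compound still present (residual rate) was determined after storage.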

Data set [2] in a line: Stability Test-2: coloration of cream stored at 50° C. Type of data set: physicochemical. Conditions: 10 panelists. Summed up: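 Creams were made by heating and mixing parts (a) and (b), cooling, then adding part (c), adjusting pH to 7 or 9. After storage at 50° C., ten panelists scored coloration against the freshly prepared cream: 3 for almost no change, 2 for color change, 1 for strong coloration.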

Data set [3] concerns Normal human dermal fibroblasts. Nature of the data set: Collagen production promoting effect (ELISA of free collagen in supernatant). The data set is classed as cell-based. Conditions: 10 mM or less, 48 hours, control group set to 100%, N=3. As for the experimental part: Normal human dermal fibroblasts were prepared in D-MEM containing 5% (v/v) fetal bovine serum to a cell density of 2.5×10^4 cells/well, and then pre-incubated for 24 hours on a 96-well plate. After removing the medium, samples prepared to a predetermined concentration in D-MEM containing 5% (v/v) fetal bovine serum were added to each well and cultured for 48 hours. After the culture was completed, the amount of free collagen in the supernatant was quantified by ELISA. Measurements were performed in triplicate (N=3).
The amount of collagen produced when the sample was measured at a concentration of 10 mM or less was compared with that of the control group, and the results (% values when the control group was set to 100%) are shown in Table 17 based on the following criteria.

A short description of data set [4]: Stability Test-2: odor of cream stored at 50° C. The data set is classed as physicochemical. Conditions: 10 panelists. In outline: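 Test creams were made by heating and mixing components (a) and (b), cooling, then adding component (c) to give a pH of 7 or 9. After storage at 50° C., 10 panelists scored odor: 3 almost odorless, 2 slight strange odor, 1 strong odor. Totals were graded ◯ (25 or more), Δ (16-24) or x (15 or less).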

Data set [5] concerns Normal human dermal fibroblasts (NHDF). As to the kind of experiment: Hyaluronic acid production promoting effect (ELISA of hyaluronic acid in supernatant). The data set is classed as cell-based. Conditions: 10 mM or less, 48 hours, control group set to 100%, N=3. As for the experimental part: Normal human dermal fibroblasts (NHDF) were prepared in D-MEM containing 5% (v/v) fetal bovine serum to a cell density of 2.5×10^4 cells/well, and then pre-incubated on a 96-well plate for 24 hours. After removing the medium, samples prepared in serum-free D-MEM were added to each well and cultured for 48 hours. After the culture was completed, the amount of hyaluronic acid in the supernatant was quantified by ELISA. Measurements were performed in triplicate (N=3).
The amount of hyaluronic acid produced when the sample was measured at a concentration of 10 mM or less was compared with that of the control group, and the results (% values when the control group is set to 100%) are shown in Tables 18 to 20 based on the following criteria.
Background: In an ELISA, binding on a coated surface is turned into a signal by an enzyme label.

Where [6] appears, read: cream pH 7, 50° C., after 2 weeks, 20160 min.
The mark [7] stands for this setting: cream pH 7, 50° C., after 4 weeks, 40320 min.
Setting [8] is: cream pH 9, 50° C., after 2 weeks, 20160 min.
Setting [9] is: cream pH 9, 50° C., after 4 weeks, 40320 min.

Regarding `CCCC(=O)OCC(OC(=O)CCC)C1OC(=O)C2=C1OCCCO2` (stereo not shown) [Synthesis Example 21, 5,6-O-dibutanoyl-2,3-O-(1,3-propanediyl) ascorbic acid], the “Residual Rate” value in data set [1] (setting [6]), in data set [1] (setting [7]), in data set [1] (setting [8]) and in data set [1] (setting [9]) was “⊚ (95% or more)” in each case. The Coloration entry in data set [2] (after 2 weeks) and in data set [2] (after 4 weeks) was “◯ (Total score of 10 panelists is 25 or more)” each time. In addition, the Collagen production-promoting effect entry in data set [3] is on record as “++ (140%<)”. For the same molecule, the Odor entry in data set [4] (after 2 weeks) is reported as “◯ (Total score of 10 panelists is 25 or more)”; in data set [4] (after 4 weeks), “Δ (Total score of 10 panelists is 16-24)”. For the same molecule, in data set [5], the “Hyaluronic acid production-promoting effect” value is reported as “++ (120%<)”.
For `CCCCCCCC(=O)OCC(OC(=O)CCCCCCC)C1OC(=O)C2=C1OCCCCO2` (stereo not shown) [Synthesis Example 12, 5,6-O-dioctanoyl-2,3-O-(1,4-butanediyl) ascorbic acid], the “Residual Rate” value in data set [1] (setting [6]), in data set [1] (setting [7]), in data set [1] (setting [8]) and in data set [1] (setting [9]) was “⊚ (95% or more)” each time. Further, the Coloration result in data set [2] (after 2 weeks) and in data set [2] (after 4 weeks) was “◯ (Total score of 10 panelists is 25 or more)” throughout. The Collagen production-promoting effect result in data set [3] was “++ (140%<)”. Also, the Odor result in data set [4] (after 2 weeks) is given as “◯ (Total score of 10 panelists is 25 or more)”; in data set [4] (after 4 weeks), “Δ (Total score of 10 panelists is 16-24)”. In data set [5], the “Hyaluronic acid production-promoting effect” value was “++ (120%<)”.
`CCCCCCCCCCCCCCCC(=O)OCC(O)C1OC(=O)C2=C1OCCCCO2` (stereo not shown) [Synthesis Example 15, 6-O-palmitoyl-2,3-O-(1,4-butanediyl) ascorbic acid]: the “Residual Rate” value in data set [1] (setting [6]), in data set [1] (setting [7]), in data set [1] (setting [8]) and in data set [1] (setting [9]) was “⊚ (95% or more)” in each case. Besides, the Coloration entry in data set [2] (after 2 weeks) and in data set [2] (after 4 weeks) was “◯ (Total score of 10 panelists is 25 or more)” throughout. The Collagen production-promoting effect entry in data set [3] is reported as “++ (140%<)”. For the same molecule, the figures for the Odor result in data set [4] (after 2 weeks) and in data set [4] (after 4 weeks) were “◯ (Total score of 10 panelists is 25 or more)” and “Δ (Total score of 10 panelists is 16-24)”, respectively. For the same molecule, in data set [5], the “Hyaluronic acid production-promoting effect” value was “++ (120%<)”.
Consider `CCCCCCCCCCCCCCCC(=O)OCC(OC(=O)CCCCCCCCCCCCCCC)C1OC(=O)C2=C1OCCCO2` (stereo not shown) [Synthesis Example 27, 5,6-O-dipalmitoyl-2,3-O-(1,3-propanediyl) ascorbic acid], for which the “Residual Rate” value in data set [1] (setting [6]), in data set [1] (setting [7]), in data set [1] (setting [8]) and in data set [1] (setting [9]) was “⊚ (95% or more)” throughout. The Coloration entry in data set [2] (after 2 weeks) is reported as “◯ (Total score of 10 panelists is 25 or more)”; in data set [2] (after 4 weeks) it was “Δ (Total score of 10 panelists is 16-24)”. In data set [3], the Collagen production-promoting effect entry is reported as “++ (140%<)”. The Odor result in data set [4] (after 2 weeks) is “◯ (Total score of 10 panelists is 25 or more)”; in data set [4] (after 4 weeks) it was “Δ (Total score of 10 panelists is 16-24)”. Moreover, the “Hyaluronic acid production-promoting effect” value in data set [5] is given as “++ (120%<)”.
